# What was measured:
# [1] = molecular target: T1, pepsin or simulated human gastric fluid (SGF) (Sus scrofa, UniProt P00791); type: biochemical
# T1 construct: purchased Sigma P6887
# [2] = test system: insect and/or nematode protease (X condition); assay: Round 2 and spacer FRET cleavage, X (insect) cleavage condition; type: biochemical; conditions: Round 2 FRET, X-Y combinations
# Experimental: Round 2 data from FRET molecules that represented a subset of binary combinations based on the observed top hits in Round 1 provided a hierarchical ranking of the various binary combinations. Round 2 FRET molecules were synthesized, resuspended, and tested in cleavage enzyme assays as described above in Round 1. Many combinations of binary cleavable linking peptides were tested against LEP, COLEOP and SGF conditions.
# Data from the Round 2 FRET that exemplifies the combination of both X and Y cleavability in a binary or tertiary peptide are presented in Table 6.
# To screen for potential spacers, FRET peptides were ordered as the binary peptide ALKLFVZ1Z2 and varied amino acids in positions Z1 and Z2. Some of the amino acids were screened as individuals and some were screened as pools. The peptides were re-suspended using 50% acetonitrile in water at a concentration of 2 μM of each peptide. For the one containing more than one FRET peptide, they were re-suspended so that each peptide was as 2 μM (assuming an equal portion of each one). These were then re-suspended and screened as described above for Round 1. The data does confirm that some amino acids in the Z position are more favorable than others. […] The greater the value of the slope in Table 7 the greater the activity of the amino acid when part of a spacer. The column in Table 7 labeled “Slope” indicates the speed of cleavage of the Linker.
# [3] = molecular target: T2, pepsin from porcine gastric mucosa (Sus scrofa, UniProt P00791); type: biochemical
# T2 construct: from tissue; host or cells: porcine gastric mucosa
# [4] = test system: gut extract isolated from Southern Corn Rootworm; type: biochemical, Diabrotica undecimpunctata
# CEW gut extract = type: biochemical, Helicoverpa zea
# T2 sequence (P00791 60-385): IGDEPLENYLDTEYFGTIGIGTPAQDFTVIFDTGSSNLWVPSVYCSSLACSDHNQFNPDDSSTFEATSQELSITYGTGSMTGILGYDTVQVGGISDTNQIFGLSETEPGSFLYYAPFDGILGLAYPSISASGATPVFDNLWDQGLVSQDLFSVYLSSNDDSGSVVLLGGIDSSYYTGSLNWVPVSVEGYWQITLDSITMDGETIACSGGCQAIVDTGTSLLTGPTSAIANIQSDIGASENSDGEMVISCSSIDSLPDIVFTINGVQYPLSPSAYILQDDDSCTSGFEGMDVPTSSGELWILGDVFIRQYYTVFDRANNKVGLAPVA
# T1 sequence (P00791 60-385): as above
Substance,"% of Max Slope, Y [1]","% of Max Slope, X [2]",cleavage of linking peptide in SGF (His-tagged western blot) [3],cleavage of linking peptide in SCR gut extract (His-tagged western blot) [4],cleavage of linking peptide in CEW gut extract (His-tagged western blot) (CEW gut extract)
ALKLFVGS (cleavable linker),88%,100%,digestion and disappearance of the protein band,digestion and disappearance of the protein band,digestion and disappearance of the protein band
IFVRLRGS (cleavable linker),–,–,digestion and disappearance of the protein band,digestion and disappearance of the protein band,digestion and disappearance of the protein band
"IGER (listed as Pisum sativum) [control peptide that is only cleaved in insects, reference compound]",–,–,retention of the intact protein band,retention of the intact protein band,only cleaves in the CEW gut extract
LFVALKGS (cleavable linker),76%,92%,–,–,–
LFVRLRGS (cleavable linker),74%,94%,–,–,–
LKLFVGS (cleavable linker),67%,98%,–,–,–
LRLFVGS (cleavable linker),75%,74%,–,–,–
